Usually EC50 stands for the concentration giving half of the maximal effect. The Ki is the equilibrium dissociation constant of an inhibitor or competing ligand from its target. High values mean lower affinity, low ones higher affinity.

Like-named read-outs stand apart in the source and are kept apart here.

The subject of one experiment is HeLa cells. As to the kind of experiment: Histone H3 (Ser10) phosphorylation ELISA, abrogation of camptothecin-induced G2 arrest (CHK-1 cellular assay). It is filed as cell-based. How it is done: The Histone H3 phosphorylation ELISA assay detects cells entering mitosis and represents the primary in vitro cell-based assay used to measure the cellular potency of compounds in abrogating the G2 check point induced by DNA damage in HeLa cells or MiaPaCa cells. The candidate substances were assayed for potency in their ability to inhibit camptothecin-induced G2 arrest, as measured by an increase in Histone H3 phosphorylation on Ser10, a marker of entry into mitosis.
Tissue culture plates were seeded with HeLa cells or MiaPaCa Cells and allowed to attach overnight. The cells were then treated with camptothecin to induce DNA damage for 8 hrs. Candidate substances or diluent were then added in the presence of nocodozole for 16 hours. […] The fresh whole cell lysates were then thawed and added to the ELISA plate with shaking for 3 hours. Between all subsequent steps plates were washed 4 times with PBST. Biotinylated phospho Histone H3 (ser10) detection antibody was added for 1 hour, followed by addition of horseradish peroxidase-linked streptavidin secondary antibody for 1 hour. Color development of the antibody was performed with addition of TMB substrate and incubation for 2 minutes on a plate shaker. […] EC50 values were calculated by sigmoid curve fitting using a four-parameter analysis.
Under the “Ki” column, data entries in the format of “%” are percent inhibition data where no Ki data is available. Data entry under the “EC50” column with an * are data obtained using Mia Paca-2 cells rather than HeLa cells. Data is not available where noted as n/a.

The target of the next experiment is T1, CHK1 (kinase domain) (Homo sapiens, UniProt O14757).
T1 construct: a solution containing 1 nM of CHK1 (kinase domain)
T1 sequence (O14757 9-265 limits assumed): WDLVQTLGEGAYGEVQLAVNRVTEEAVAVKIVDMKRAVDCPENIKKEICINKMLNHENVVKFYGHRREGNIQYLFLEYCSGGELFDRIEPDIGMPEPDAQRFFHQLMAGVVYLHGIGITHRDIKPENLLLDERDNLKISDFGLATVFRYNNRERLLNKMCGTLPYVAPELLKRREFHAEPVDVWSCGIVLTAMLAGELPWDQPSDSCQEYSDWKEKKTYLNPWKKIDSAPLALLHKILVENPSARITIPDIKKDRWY
In words: CHK1 Ki determination, spectrophotometric coupled (pyruvate kinase/lactate dehydrogenase) assay. It counts as biochemical. Particulars: CHK-1 kinase domain; for Ki: 150 uM ATP, 125 uM Syntide 2. In outline:
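Ki values, or % inhibition where no Ki was obtained, come from a tight-binding fit that uses active enzyme concentration and the ATP Km. Rates were followed as NADH loss at 340 nm, with ADP production coupled via pyruvate kinase and lactate dehydrogenase. Reactions with ATP (150 uM) and Syntide 2 (125 uM) were started after the CHK1 kinase domain had stood with inhibitor for 15 min.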

The mark [1] stands for this setting: Homo sapiens, HeLa, HeLa cells, camptothecin 8 hrs, then compound with nocodozole 16 hours, read-out: EC50.

Regarding `C[C@@H]1C[C@@H](Nc2cncc(-c3cnn4ccccc34)n2)CN1` [Example 145, N-[(3R,5R)-5-methylpyrrolidin-3-yl]-6-pyrazolo[1,5-a]pyridin-3-ylpyrazin-2-amine], the EC50 with HeLa cells (setting [1]) came out at 0.389 µM. At CHK1 (kinase domain), this compound showed a Ki of 0.0081 µM.
Taken in the same sequence, the figures for `C[C@H]1NCCC[C@H]1Nc1cncc(-c2cnc3cc(C#N)ccn23)n1` [Example 262, 3-(6-{[(2R,3R)-2-methylpiperidin-3-yl]amino}pyrazin-2-yl)imidazo[1,2-a]pyridine-7-carbonitrile] were 0.303 µM and 0.0564 µM.
On to `COc1ccn2c(-c3cncc(N[C@H]4CNC[C@H]4c4ccccc4)n3)cnc2c1` [Example 152, 6-(7-methoxyimidazo[1,2-a]pyridin-3-yl)-N-[(3R,4R)-4-phenylpyrrolidin-3-yl]pyrazin-2-amine], for which the half-maximal effective concentration (EC50) with HeLa cells (setting [1]) was determined as 0.0056 µM. The inhibition constant (Ki) at CHK1 (kinase domain) turned out to be 0.00147 µM.
The matching figures for `CCOc1ccc2ncn(-c3cncc(N[C@@H]4CCCNC4)n3)c2c1` [Example 149, 6-(6-ethoxy-1H-benzimidazol-1-yl)-N-[(3R)-piperidin-3-yl]pyrazin-2-amine]: not below 10 µM and 0.00677 µM.
As for `Cc1ncc(N[C@@H]2CCNC2)nc1-c1cnc2ccccn12` [Example 296, 6-(imidazo[1,2-a]pyridin-3-yl)-5-methyl-N-[(3R)-pyrrolidin-3-yl]pyrazin-2-amine], in the experiment with HeLa cells (setting [1]), the EC50 was found to be 4.08 µM. Moreover, the Ki at CHK1 (kinase domain) is 0.334 µM.
In the case of `C[C@@H]1NCCC[C@H]1Nc1cncc(-c2cnc3ccc(F)cn23)n1` [Example 168, 6-(6-fluoroimidazo[1,2-a]pyridin-3-yl)-N-[(2S,3R)-2-methylpiperidin-3-yl]pyrazin-2-amine], the EC50 in the experiment with HeLa cells (setting [1]) is not below 10 µM. For the same compound, on CHK1 (kinase domain), the Ki turned out to be 0.0227 µM.
The matching figures for `C[C@@H]1NCCC[C@@H]1Nc1cncc(-c2cnc3ccccn23)n1` [Example 139, 6-imidazo[1,2-a]pyridin-3-yl-N-[(2S,3S)-2-methylpiperidin-3-yl]pyrazin-2-amine]: not below 10 µM and 0.0097 µM.
Taken in the same sequence, the figures for `COc1ccc2ncc(-c3cncc(N[C@@H]4CCNC4)n3)n2c1` [Example 55, 6-(6-Methoxyimidazo[1,2-a]pyridin-3-yl)-N-[(3R)-pyrrolidin-3-yl]pyrazin-2-amine] were 0.229 µM and 0.023 µM.
Consider `c1cc2c(cc1OCC1CC1)ncn2-c1cncc(N[C@@H]2CCNC2)n1` [Example 221, 6-[5-(cyclopropylmethoxy)-1H-benzimidazol-1-yl]-N-[(3R)-pyrrolidin-3-yl]pyrazin-2-amine], for which the EC50 with HeLa cells (setting [1]) was 0.37 µM. Further, at CHK1 (kinase domain), affinity was put at a Ki of 0.00334 µM.
On to `Cc1cn2c(-c3cncc(N[C@@H]4CCCN[C@H]4C)n3)cnc2s1` [Example 176, 6-(2-methylimidazo[2,1-b][1,3]thiazol-5-yl)-N-[(2S,3R)-2-methylpiperidin-3-yl]pyrazin-2-amine], for which the EC50 in the experiment on HeLa cells (HeLa cells, camptothecin 8 hrs, then compound with nocodozole 16 hours, read-out: EC50) is 0.0112 µM. For the same compound, the Ki at CHK1 (kinase domain) was determined as 0.00954 µM.
As to `CC1(COc2ccc3c(c2)ncn3-c2cncc(N[C@@H]3CCCNC3)n2)COC1` [Example 47, 6-{5-[(3-Methyloxetan-3-yl)methoxy]-1H-benzimidazol1-yl}-N-[(3R)-piperidin-3-yl]pyrazin-2-amine], the EC50 in the experiment on HeLa cells (setting [1]) amounted to 0.0522 µM. Also, the affinity at CHK1 (kinase domain) corresponds to a Ki of 0.0246 µM.
As to `Fc1ccc2ncc(-c3cncc(N[C@@H]4C[C@@H]5CN[C@H]4C5)n3)n2c1` [Example 126, (1S,4R,6R)-N-[6-(6-fluoroimidazo[1,2-a]pyridin-3-yl)pyrazin-2-yl]-2-azabicyclo[2.2.1]heptan-6-amine], in the experiment on HeLa cells (setting [1]), the EC50 was found to be 0.14 µM. For the same compound, the Ki on CHK1 (kinase domain) turned out to be 0.00588 µM.
The matching figures for `F[C@H]1CNC[C@@H]1Nc1cncc(-c2cnn3ccccc23)n1` [Example 66, N-[(3S,4S)-4-fluoropyrrolidin-3-yl]-6-(pyrazolo[1,5-a]pyridin-3-yl)pyrazin-2-amine]: 0.344 µM and 0.0127 µM.
The matching figures for `F[C@H]1CCNC[C@@H]1Nc1cncc(-c2cnc3ccccn23)n1` [Example 28, N-[(3S,4S)-4-fluoropiperidin-3-yl]-6-imidazo[1,2-a]pyridin-3-ylpyrazin-2-amine]: 0.205 µM and 0.00477 µM.
Take `FC(F)(F)c1ccn2c(-c3cncc(N[C@@H]4CCNC4)n3)cnc2c1` [Example 53, N-[(3R)-pyrrolidin-3-yl]-6-[7-(trifluoromethyl)imidazo[1,2-a]pyridin-3-yl]pyrazin-2-amine]: in the experiment on HeLa cells (setting [1]), the half-maximal effective concentration (EC50) was determined as 0.459 µM. Also, at CHK1 (kinase domain), the Ki was 0.037 µM.
For `CC(C)c1cn2c(-c3cncc(N[C@@H]4C[C@@H]5CN[C@H]4C5)n3)cnc2s1` [Example 127, (1S,4R,6R)-N-[6-(2-isopropylimidazo[2,1-b][1,3]thiazol-5-yl)pyrazin-2-yl]-2-azabicyclo[2.2.1]heptan-6-amine], the EC50 in the experiment on HeLa cells (setting [1]) amounted to 1.06 µM. The Ki at CHK1 (kinase domain) was found to be 0.00891 µM.
`CC1(Nc2cncc(-c3cnc4ccccn34)n2)CCCNC1` (centres unmarked) [Example 54, 6-Imidazo[1,2-a]pyridin-3-yl-N-(3-methylpiperidin-3-yl)pyrazin-2-amine]: the EC50 in the experiment on HeLa cells (setting [1]) is 1.11 µM. The compound further registered a Ki on CHK1 (kinase domain) of 0.118 µM.
Regarding `Clc1ccc2c(-c3cncc(N[C@@H]4CCCNC4)n3)cnn2c1` [Example 117, 6-(6-chloropyrazolo[1,5-a]pyridin-3-yl)-N-[(3R)-piperidin-3-yl]pyrazin-2-amine], in the experiment on HeLa cells (setting [1]), the EC50 worked out at 0.0329 µM. At CHK1 (kinase domain), this compound returned a Ki of 0.000802 µM.
The matching figures for `CC(C)Oc1ccc2c(c1)ncn2-c1cncc(N[C@@H]2CCCNC2)n1` [Example 215, N-[(3R)-piperidin-3-yl]-6-[5-(propan-2-yloxy)-1H-benzimidazol-1-yl]pyrazin-2-amine]: 0.0358 µM and 0.00678 µM.
As for `N#Cc1ccn2c(-c3cncc(N[C@@H]4CCNC4)n3)cnc2c1` [Example 186, 3-{6-[(3R)-pyrrolidin-3-ylamino]pyrazin-2-yl}imidazo[1,2-a]pyridine-7-carbonitrile], the EC50 in the experiment with HeLa cells (setting [1]) is 0.664 µM. The compound further came in with a Ki at CHK1 (kinase domain) of 0.024 µM.
In turn, `c1ccn2c(-c3cncc(N[C@@H]4CCCNC4)n3)cnc2c1` [Example 2, 6-Imidazo[1,2-a]pyridin-3-yl-N-[(3R)-piperidin-3-yl]pyrazin-2-amine] returned an EC50 in the experiment with HeLa cells (Homo sapiens, HeLa) of 0.0343 µM. At CHK1 (kinase domain), this compound returned a Ki of 0.00324 µM.
`Cc1cn2c(-c3cncc(N[C@H]4CNC[C@H]4CF)n3)cnc2s1` [Example 183, N-[(3R,4R)-4-(fluoromethyl)pyrrolidin-3-yl]-6-(2-methylimidazo[2,1-b][1,3]thiazol-5-yl)pyrazin-2-amine]: in the experiment with HeLa cells (setting [1]), the EC50 amounted to 0.053 µM. This compound also registered a Ki on CHK1 (kinase domain) of 0.0054 µM.
Turning to `CC(C)c1cn2c(-c3cncc(N[C@H]4CCCN[C@@H]4C)n3)cnc2s1` [Example 173, N-[(2R,3S)-2-methylpiperidin-3-yl]-6-[2-(propan-2-yl)imidazo[2,1-b][1,3]thiazol-5-yl]pyrazin-2-amine], the EC50 with HeLa cells (setting [1]) was not below 10 µM. For the same compound, the Ki on CHK1 (kinase domain) was 0.0237 µM.
For the compound `CCc1cn2c(-c3cncc(N[C@@H]4CCCNC4)n3)cnc2s1` [Example 107, 6-(2-ethylimidazo[2,1-b][1,3]thiazol-5-yl)-N-[(3R)-piperidin-3-yl]pyrazin-2-amine], the EC50 in the experiment on HeLa cells (setting [1]) was 0.0316 µM. For the same compound, on CHK1 (kinase domain), the Ki turned out to be 0.00285 µM.
Turning to `Cc1cn2c(-c3cncc(N[C@H]4CCCN[C@@H]4C)n3)cnc2s1` [Example 134, 6-(2-methylimidazo[2,1-b][1,3]thiazol-5-yl)-N-[(2R,3S)-2-methylpiperidin-3-yl]pyrazin-2-amine], the EC50 with HeLa cells (setting [1]) was not below 10 µM. Also, the “percent inhibition (where no Ki data is available)” value on CHK1 (kinase domain) (inhibitor concentration not given) is on record as 0%.
Consider `CC(C)c1cn2c(-c3cncc(N[C@@H]4CC[C@H](C)NC4)n3)cnc2s1` [Example 114, 6-(2-isopropylimidazo[2,1-b][1,3]thiazol-5-yl)-N-[(3R,6S)-6-methylpiperidin-3-yl]pyrazin-2-amine], for which, in the experiment on HeLa cells (setting [1]), the EC50 is 0.23 µM. Moreover, on CHK1 (kinase domain), the affinity corresponds to a Ki of 0.0123 µM.
The matching figures for `FC(F)(F)CO[C@@H]1CNC[C@@H]1Nc1cncc(-c2cnc3ccccn23)n1` [Example 195, 6-(imidazo[1,2-a]pyridin-3-yl)-N-[(3S,4R)-4-(2,2,2-trifluoroethoxy)pyrrolidin-3-yl]pyrazin-2-amine]: 0.0785 µM and 0.0734 µM.
On to `COc1ccn2c(-c3cncc(N[C@@H]4CCNC4)n3)cnc2c1` [Example 52, 6-(7-Methoxyimidazo[1,2-a]pyridin-3-yl)-N-[(3R)-pyrrolidin-3-yl]pyrazin-2-amine], for which the EC50 in the experiment on HeLa cells (setting [1]) was found to be 0.0729 µM. The compound further registered a Ki at CHK1 (kinase domain) of 0.00955 µM.

The values are drawn from patent US8518952B2, “6 substituted 2-heterocyclylamino pyrazine compounds as CHK-1 inhibitors” (Pfizer Inc., priority 2008, dated 2013).
